Results reported in US11136370B2, “Compositions and methods for thrombin generation assay” (The Scripps Research Institute, priority 2016, dated 2021).

Assays:
thrombin generation (TG) [1] = format: biochemical, human; details: 2 μM hirugen, PRP with CTI and anti-FXI MoAb
Method: TG in PRP or reconstituted PRP was evaluated as known to those skilled in the art. Native PRP was prepared from blood collected into final 12.9 mM trisodium citrate by centrifugation at 250 g for 10 min at 25° C. The platelet count was adjusted to 180×10^3/μl by dilution with homologous PPP obtained by centrifuging PRP for 10 min at 1,500 g. CTI was added at 30-50 μg/ml depending on calibrated potency as assessed by FXIIa inhibition. Reconstituted PRP was prepared with washed platelets prepared from normal PRP by adding ⅕th volume of acid citrate-dextrose (71 mM citric acid, 85 mM trisodium citrate, and 111 mM dextrose, pH 4.5) and 5 U/ml apyrase; following centrifugation at 1,500 g for 10 minutes at 25° C., the platelet pellet was resuspended into PPP lacking FVII (George King Bio-Medical) or FIX (Haematologic Technologies) to give a final platelet count of 180·103/μl PRP was mixed with varying concentrations of rTF and/or 20 pM FIXa in 96-well microtiter plates. The reaction was started by adding 18 mM CaCl2 with 360 μM of the thrombin substrate benzyloxycarbonyl-glycyl-glycyl-L-arginine coupled to the fluorogenic group 7-amido-4-methylcoumarin (Gly-Gly-Arg-AMC; Bachem Americas, Torrance, Calif.). Fluorescence was measured continuously at 37° C. for up to 40 min in a spectrofluorometer (355/460 nm excitation/emission). The rate of fluorescence intensity increase as a function of time (dF/dt) was calculated with Turbo Delphi 2006 (Borland Software Corporation, Austin, Tex.) and converted to thrombin-equivalent concentration (nM) using a calibration curve. The endogenous thrombin potential (ETP) of samples, i.e. total generated thrombin activity, was determined from the area under the TG curve. When specified, TG was measured with a discontinuous 2-stage assay with a detection limit of 5 pM. For this, TG was induced by 0.15 pM rTF and 18 mM CaCl2 in reconstituted FVII-deficient PRP including 30 μg/ml CTI with 400 pM WT FVIIa or iFVIIa without or with 20 pM FIXa. After incubation for up to 11 min at 37° C., reactions were terminated by adding 20 mM EDTA and generated thrombin was measured using the highly sensitive thrombin substrate H-D-CHA-Ala-Arg-AMC.2AcOH (Pefafluor TH, Pentapharm, Basel, Switzerland) at 50 μM concentration. In other experiments, TG was induced by TFiFVIIa-FXa-TFPI or TF-iFVIIa-FXa-NAPc2. These stable complexes were pre-formed by incubating 5 nM FXa, 10 nM TF, 10 nM iFVIIa and 40 nM TFPI or NAPc2 in the presence of 2.5 mM CaCl2 for 2 min at 37° C. Complexes were added into FVII-deficient PRP, followed by incubation for 8 min at 37° C.
PRP was prepared from blood collected into trisodium citrate (final concentration 0.0129 M) by centrifugation for at 250 g for 10 min at 25° C.; the platelet count was adjusted at 180.103 per μl by diluting with homologous platelet-poor plasma (PPP) obtained by centrifuging PRP for an additional 10 min at 1,500 g. When indicated, CTI was added at 30 to 50 μg/ml depending on calibrated potency measured by FXIIa inhibition. Reconstituted PRP was prepared by adding normal washed platelets into PPP (without or with CTI) lacking FVII, FVIII (both from George King Bio-Medical, Overland Park, Kans.) or FIX (Haematologic Technologies). […] generation in PRP was measured as described by Hemker et al. 53 μl of PRP was mixed in 96-well microtiter plates with 15 μl of a solution containing rTF and/or one of the intrinsic coagulation pathway proteases—FXIIa, FXIa or FIXa—to achieve the indicated final concentrations. Antibodies or inhibitors were also added at this point at the concentration indicated for each specific case. The reaction was started by adding between 15 and 20 μl of 100 mM CaCl2 and 2 mM fluorogenic substrate, benzyloxycarbonyl-glycyl-glycyl-L-arginine-7-amido-4-methylcoumarin (Gly-Gly-Arg-AMC; Bachem Americas, Torrance, Calif.).

thrombin generation (TG) [2] = assay: TG in FVII-deficient reconstituted PRP with FVIIa WT or mutants; format: biochemical, human; details: FVII-deficient plasma
Method: (A) Phospholipid-free assay of FX (1 μM) to FXa conversion by the complex of 2 μM soluble rTF with 10 nM FVIIa WT, T99Y or E154A. (B) FXa generation by 50 pM phospholipid-reconstituted rTF with 200 pM FVIIa WT, T99Y or E154A added to 135 nM FX, 0.7 nM FVIII, 3 nM FV and 200 nM lepirudin (2 min, n=2-3; 4 min, n=4-5; 6 min, n=6-9). (C) WB (representing 2) of FVIII activation in reactions of 50 pM TF, 200 pM FVIIa WT or mutants, 0.7 nM FVIII, 3 nM FV and 200 nM lepirudin without/with 135 nM FX, incubated for 120 s at 37° C. […] (E) FXa generation measured in reactions as in (D) without TFPIα and in the presence of 10 nM FIXa (left, incubation 180 s; n=5-6 except=2 for E154A) or 90 nM FIX (right, incubation for 360 s; n=5-6). […] Differences were evaluated by the ANOVA/Tukey test; results at 4 and 6 min in (B) and in reactions with FIX in (E, right) were analyzed after transformation as y=log 10 y (**P<0.01, ***P<0.001).
Thrombin was quantified with a fluorogenic substrate for calculation of % inhibition. […] Endogenous thrombin potential (ETP, right) was calculated from the area under the TG curve (n=2). […] Differences were evaluated with the ANOVA/Tukey test (performed after log 10 transformation of the data shown in E); *P<0.05, ***P<0.001. […]

thrombin = thrombin (Homo sapiens, UniProt P00734); details: 0.5 nM FIIa, 50 pM rTF, 180 s
Method: FVIII activation by stable FXa complexes with TF-FVIIa was tested in reactions containing FVIII, FV and lepirudin with or without TFPIα, with incubation for 30-120 s at 37° C. […] The inhibitory effect of hirugen on FVIIIa generation by FIIa was tested in reactions with 0.5 nM FIIa incubated with 50 pM rTF and FVIII for 180 s at 37° C.

For 63-O-Sulfo-Tyr-hirudin [hirugen], the “effect on FIXa-dependent TG” value (thrombin generation (TG) [1]) was “blocked”, the “effect on TG by FIXa combined with rTF” value (thrombin generation (TG) [1]) was “failed to inhibit” and the “effect on FIXa-initiated TG” value (thrombin generation (TG) [2]) was “abolished”. The “effect on FVIII activation by thrombin” value (thrombin) was “dose-dependently inhibited”.
